Experimental data taken from patent publication US20160083380A1, “OXIMINO DERIVATIVES FOR THE TREATMENT OF DYSLIPIDEMIA” (CADILA HEALTHCARE LIMITED, priority 2013, published 2016).
Like-named read-outs stand apart in the source and are kept apart here.

System: high fat diet C57 mice
Experiment: LDL-C lowering activity in high fat diet C57 mice
Type: in vivo
Details: Mus musculus, po, 672 h, C57 mice on high fat diet, orally once a day, dose 30 mg (30 mpk), blood collected on day 28 of treatment
Experimental: LDL-C Lowering Activity—in High Fat Diet C57 Mice
The in-vivo LDL-c lowering for test compound was tested in C57 mice which were kept on high fat diet for 4 weeks and the blood was collected by retro-orbital sinus puncture method under light ether anesthesia on day 0 (pretreatment). Animal are grouped based on LDL-c levels, after that 4-6 week treatment with vehicle or test compound orally at a dose of 30 mpk dose once a day was given. On completion of treatment on day 28 of the treatment the blood was collected for LDL-c and TC levels measurement. The percent change in LDL-c and TC in test compound group Vs Vehicle group was calculated.

[1] = read-out: % Change Vs Vehicle Control LDL-c
[2] = read-out: % Change Vs Vehicle Control TC

C/C(=N\OCc1ccc(C(F)(F)F)cc1)c1ccc(OCc2nnn[nH]2)cc1 [Example 1, 1-(4-((1H-tetrazol-5-yl)methoxy)phenyl)ethanone O-(4-(trifluoromethyl)benzyl)oxime]
change in vivo at 30 mg/kg [1]: -50 ± 4% | change in vivo at 30 mg/kg [2]: -24 ± 4%

C/C(=N\OCc1ccc(C(F)(F)F)cc1)c1ccc(OCc2nnn(C)n2)cc1 [Example 2, 1-(4-((2-Methyl-2H-tetrazol-5-yl)methoxy)phenyl)ethanone O-(4-(trifluoromethyl)benzyl)oxime]
change in vivo at 30 mg/kg [1]: -29 ± 6% | change in vivo at 30 mg/kg [2]: -14 ± 3%

C/C(=N\OCc1ccc(C(F)(F)F)cc1)c1ccc(OCc2nnnn2C)cc1 [Example 3, 1-(4-((1-Methyl-H-tetrazol-5-yl)methoxy)phenyl)ethanone O-(4-(trifluoromethyl)benzyl)oxime]
change in vivo at 30 mg/kg [1]: -5 ± 8% | change in vivo at 30 mg/kg [2]: -1 ± 3%

CC(=NOCc1ccc(C(F)(F)F)cc1)c1ccc(OCc2nnn[nH]2)nc1 [Example 4, 1-(6-((1H-tetrazol-5-yl)methoxy)pyridin-3-yl)ethanone O-(4-(trifluoromethyl)benzyl)oxime]
change in vivo at 30 mg/kg [1]: -66 ± 2% | change in vivo at 30 mg/kg [2]: -41 ± 4%

C/C(=N\OCc1ccc(C(F)(F)F)cc1)c1ccc(OCc2cnn[nH]2)cc1 [Example 6, 1-(4-((1H-1,2,3-triazol-5-yl)methoxy)phenyl)ethanone O-(4-(trifluoromethyl)benzyl)oxime]
change in vivo at 30 mg/kg [1]: -30 ± 5% | change in vivo at 30 mg/kg [2]: -11 ± 2%

C/C(=N\OCc1ccc(C(F)(F)F)cc1)c1ccc(OCc2nnc(C)o2)cc1 [Example 7, 1-(4-((5-Methyl-1,3,4-oxadiazol-2-yl)methoxy)phenyl)ethanone O-(4-(trifluoromethyl)benzyl)oxime]
change in vivo at 30 mg/kg [1]: -34 ± 7% | change in vivo at 30 mg/kg [2]: -10 ± 7%

C/C(=N\OCc1ccc(C(F)(F)F)cc1)c1ccc(OCc2nnc(C)[nH]2)nc1 [Example 18, 1-(6-((5-Methyl-4H-1,2,4-triazol-3-yl)methoxy)pyridin-3-yl)ethanone O-(4-(trifluoromethyl)benzyl)oxime]
change in vivo at 30 mg/kg [1]: -23 ± 6% | change in vivo at 30 mg/kg [2]: -11 ± 3%

C/C(=N\OCc1ccc(C(F)(F)F)cc1)c1ccc(OCc2nnc(N)o2)cc1 [Example 20, 1-(4-((5-Amino-1,3,4-oxadiazol-2-yl)methoxy)phenyl)ethanone O-(4-(trifluoromethyl)benzyl)oxime]
change in vivo at 30 mg/kg [1]: -29 ± 5% | change in vivo at 30 mg/kg [2]: -13 ± 2%

C/C(=N\OCc1ccc(C(C)(F)F)cc1)c1ccc(OCc2nnn[nH]2)cc1 [Example 22, 1-(4-((1H-tetrazol-5-yl)methoxy)phenyl)ethanone O-(4-(1,1-difluoroethyl)benzyl)oxime]
change in vivo at 30 mg/kg [1]: -61 ± 3% | change in vivo at 30 mg/kg [2]: -30 ± 3%

COc1cc(CO/N=C(\C)c2ccc(OCc3nnn[nH]3)cc2)ccc1C(F)(F)F [Example 25, 1-(4-((1H-tetrazol-5-yl)methoxy)phenyl)ethanone O-(3-methoxy-4-(trifluoromethyl)benzyl)oxime]
change in vivo at 30 mg/kg [1]: -54 ± 3% | change in vivo at 30 mg/kg [2]: -21 ± 2%

C/C(=N\OCc1ccc(C(F)(F)F)cc1)c1ccc(OCc2nnn[nH]2)cc1O [Example 27, 1-(4-((1H-tetrazol-5-yl)methoxy)-2-hydroxyphenyl) ethanone O-(4-(trifluoromethyl)benzyl)oxime]
change in vivo at 30 mg/kg [1]: -50 ± 5% | change in vivo at 30 mg/kg [2]: -25 ± 3%

C/C(=N\OCc1ccc(C(F)(F)F)cc1)c1ccc(OCc2nnnn2C)cc1O [Example 29, 1-(2-Hydroxy-4-((1-methyl-1H-tetrazol-5-yl)methoxy)phenyl)ethanone O-(4-(trifluoromethyl)benzyl)oxime]
change in vivo at 30 mg/kg [1]: -14 ± 6% | change in vivo at 30 mg/kg [2]: -5 ± 3%

C/C(=N\OCc1ccc(F)cc1)c1ccc(OCc2nnn[nH]2)cc1 [Example 31, 1-(4-((1H-tetrazol-5-yl)methoxy)phenyl)ethanone O-(4-fluorobenzyl)oxime]
change in vivo at 30 mg/kg [1]: -26 ± 10% | change in vivo at 30 mg/kg [2]: -7 ± 4%

C/C(=N\OCc1ccc(C(F)(F)F)cc1)c1ccc(OCc2nnn[nH]2)nc1Cl [Example 36, 1-(6-((1H-tetrazol-5-yl)methoxy)-2-chloropyridin-3-yl)ethanone O-(4-(trifluoromethyl)benzyl)oxime]
change in vivo at 30 mg/kg [1]: -39 ± 5% | change in vivo at 30 mg/kg [2]: -12 ± 3%

CCn1nnc(COc2ccc(/C(C)=N/OCc3ccc(C(F)(F)F)cc3)cc2)n1 [Example 41, 1-(4-((2-Ethyl-2H-tetrazol-5-yl)methoxy)phenyl)ethanone O-(4-(trifluoromethyl)benzyl)oxime]
change in vivo at 30 mg/kg [1]: -36 ± 6% | change in vivo at 30 mg/kg [2]: -11 ± 5%

CCn1nnnc1COc1ccc(/C(C)=N/OCc2ccc(C(F)(F)F)cc2)cc1 [Example 42, 1-(4-((1-Ethyl-2H-tetrazol-5-yl)methoxy)phenyl)ethanone O-(4-(trifluoromethyl)benzyl)oxime]
change in vivo at 30 mg/kg [1]: -22 ± 9% | change in vivo at 30 mg/kg [2]: 1 ± 6%

C/C(=N\OCc1ccc(C(C)(F)F)cc1)c1ccc(OCc2nnn[nH]2)nc1 [Example 43, 1-(6-((1H-tetrazol-5-yl)methoxy)pyridin-3-yl) ethanone O-(4-(1,1-difluoroethyl)benzyl)oxime]
change in vivo at 30 mg/kg [1]: -67 ± 1% | change in vivo at 30 mg/kg [2]: -38 ± 2%

CCn1nnc(COc2ccc(/C(C)=N/OCc3ccc(C(C)(F)F)cc3)cn2)n1 [Example 44, 1-(6-((2-Ethyl-2H-tetrazol-5-yl)methoxy)pyridin-3-yl)ethanone O-(4-(1,1-difluoroethyl)benzyl)oxime]
change in vivo at 30 mg/kg [1]: -50 ± 5% | change in vivo at 30 mg/kg [2]: -17 ± 3%

CCn1nnc(COc2ccc(/C(C)=N/OCc3ccc(C(F)(F)F)cc3)cn2)n1 [Example 46, 1-(6-((2-Ethyl-2H-tetrazol-5-yl)methoxy)pyridin-3-yl)ethanone O-(4-(trifluoromethyl)benzyl)oxime]
change in vivo at 30 mg/kg [1]: -41 ± 4% | change in vivo at 30 mg/kg [2]: -20 ± 2%

C/C(=N\OCc1ccc(C(F)(F)F)cc1)c1ccc(OCc2nnn(C(C)C)n2)nc1 [Example 48, 1-(6-((2-isoPropyl-2H-tetrazol-5-yl)methoxy)pyridin-3-yl)ethanone O-(4-(trifluoromethyl)benzyl)oxime]
change in vivo at 30 mg/kg [1]: -47 ± 7% | change in vivo at 30 mg/kg [2]: -17 ± 3%

C/C(=N\OCc1ccc(C(F)(F)F)cc1)c1ccc(OCc2nnn(CC3CC3)n2)nc1 [Example 50, 1-(6-((2-(Cyclopropylmethyl)-2H-tetrazol-5-yl)methoxy)pyridin-3-yl)ethanone O-(4-(trifluoromethyl)benzyl)oxime]
change in vivo at 30 mg/kg [1]: -47 ± 4% | change in vivo at 30 mg/kg [2]: -18 ± 3%

C/C(=N\OCc1ccc(C(F)(F)F)cc1)c1ccc(OCc2nnn(CC3CCCCC3)n2)nc1 [Example 52, 1-(6-((2-(Cyclohexylmethyl)-2H-tetrazol-5-yl)methoxy)pyridin-3-yl)ethanone O-(4-(trifluoromethyl)benzyl)oxime]
change in vivo at 30 mg/kg [1]: -18 ± 11% | change in vivo at 30 mg/kg [2]: -2 ± 5%

C/C(=N\OCc1ccc(C(F)(F)F)cc1)c1ccc(OCc2nnnn2CC(=O)O)nc1 [Example 56, 2-(5-(((5-(1-(((4-(Trifluoromethyl)benzyl)oxy)imino)ethyl)pyridin-2-yl)oxy)methyl)-1H-tetrazol-1-yl)acetic acid]
change in vivo at 30 mg/kg [1]: -22 ± 5% | change in vivo at 30 mg/kg [2]: -16 ± 4%

C/C(=N\OCc1ccc(C(C)(F)F)cc1)c1ccc(OCc2nnn(C(C)C)n2)nc1 [Example 58, 1-(6-((2-isoPropyl-2H-tetrazol-5-yl)methoxy)pyridin-3-yl)ethanone O-(4-(1,1-difluoroethyl)benzyl)oxime]
change in vivo at 30 mg/kg [1]: -36 ± 6% | change in vivo at 30 mg/kg [2]: -7 ± 2%

C/C(=N\OCc1ccc(C(C)(F)F)cc1)c1ccc(OCc2nnn(CC3CC3)n2)nc1 [Example 60, 1-(6-((2-(Cyclopropylmethyl)-2H-tetrazol-5-yl)methoxy)pyridin-3-yl)ethanone O-(4-(1,1-difluoroethyl)benzyl)oxime]
change in vivo at 30 mg/kg [1]: -49 ± 3% | change in vivo at 30 mg/kg [2]: -17 ± 3%
